Data published in ChEMBL document CHEMBL4699634, “Series of Novel and Highly Potent Cyclic Peptide PCSK9 Inhibitors Derived from an mRNA Display Screen and Optimized via Structure-Based Design” (J Med Chem, 2020).
Numbered stars: 1 amine (or outer) side, 2 acyl side, 3 side chain; on linkers, the order of the positions; unused ones are H or OH. Bridge positions count the residues as written; N and C are the ends. Square brackets hold non-standard residues; d marks the D form. Peptide text beside a SMILES is read from it. ξ: configuration not given here. Trp(5-F) = N[C@@H](Cc1c[nH]c2ccc(F)cc12)C(=O)O; Trp(7-aza) = N[C@@H](Cc1c[nH]c2ncccc12)C(=O)O; NMePhe(4-F) = CN[C@@H](Cc1ccc(F)cc1)C(=O)O; Bip = N[C@@H](Cc1ccc(-c2ccccc2)cc1)C(=O)O; mXylylene = c1cc(C[*:1])cc(C[*:2])c1; Tle = CC(C)(C)[C@H](N)C(=O)O; Nva = CCC[C@H](N)C(=O)O; ξNle = CCCCC(N)C(=O)O; Mpa = O=C(O)CCS

Target: PCSK9/LDLR (Homo sapiens, UniProt Q8NBP7)
Sequence (Q8NBP7 31-152 limits assumed): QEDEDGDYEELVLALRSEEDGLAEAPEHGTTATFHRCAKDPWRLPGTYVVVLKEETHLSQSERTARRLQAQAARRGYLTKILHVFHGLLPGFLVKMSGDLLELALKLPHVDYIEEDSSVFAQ
Sequence (Q8NBP7 153-692 limits assumed): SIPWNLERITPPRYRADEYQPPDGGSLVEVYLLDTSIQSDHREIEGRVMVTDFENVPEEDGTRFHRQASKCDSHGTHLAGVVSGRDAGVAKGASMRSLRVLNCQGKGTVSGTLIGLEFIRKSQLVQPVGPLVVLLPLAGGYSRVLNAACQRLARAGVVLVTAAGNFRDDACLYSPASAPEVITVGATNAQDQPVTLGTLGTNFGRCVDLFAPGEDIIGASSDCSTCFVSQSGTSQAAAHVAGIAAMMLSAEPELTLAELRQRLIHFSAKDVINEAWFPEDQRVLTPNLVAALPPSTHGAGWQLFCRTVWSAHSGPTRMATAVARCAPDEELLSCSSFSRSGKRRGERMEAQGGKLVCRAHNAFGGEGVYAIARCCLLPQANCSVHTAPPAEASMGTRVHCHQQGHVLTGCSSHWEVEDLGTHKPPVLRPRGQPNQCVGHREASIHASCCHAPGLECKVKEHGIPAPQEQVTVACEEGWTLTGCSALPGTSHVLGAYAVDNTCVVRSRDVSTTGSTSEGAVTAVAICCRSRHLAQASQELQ
Sequence (P01130 22-860 partner limits assumed): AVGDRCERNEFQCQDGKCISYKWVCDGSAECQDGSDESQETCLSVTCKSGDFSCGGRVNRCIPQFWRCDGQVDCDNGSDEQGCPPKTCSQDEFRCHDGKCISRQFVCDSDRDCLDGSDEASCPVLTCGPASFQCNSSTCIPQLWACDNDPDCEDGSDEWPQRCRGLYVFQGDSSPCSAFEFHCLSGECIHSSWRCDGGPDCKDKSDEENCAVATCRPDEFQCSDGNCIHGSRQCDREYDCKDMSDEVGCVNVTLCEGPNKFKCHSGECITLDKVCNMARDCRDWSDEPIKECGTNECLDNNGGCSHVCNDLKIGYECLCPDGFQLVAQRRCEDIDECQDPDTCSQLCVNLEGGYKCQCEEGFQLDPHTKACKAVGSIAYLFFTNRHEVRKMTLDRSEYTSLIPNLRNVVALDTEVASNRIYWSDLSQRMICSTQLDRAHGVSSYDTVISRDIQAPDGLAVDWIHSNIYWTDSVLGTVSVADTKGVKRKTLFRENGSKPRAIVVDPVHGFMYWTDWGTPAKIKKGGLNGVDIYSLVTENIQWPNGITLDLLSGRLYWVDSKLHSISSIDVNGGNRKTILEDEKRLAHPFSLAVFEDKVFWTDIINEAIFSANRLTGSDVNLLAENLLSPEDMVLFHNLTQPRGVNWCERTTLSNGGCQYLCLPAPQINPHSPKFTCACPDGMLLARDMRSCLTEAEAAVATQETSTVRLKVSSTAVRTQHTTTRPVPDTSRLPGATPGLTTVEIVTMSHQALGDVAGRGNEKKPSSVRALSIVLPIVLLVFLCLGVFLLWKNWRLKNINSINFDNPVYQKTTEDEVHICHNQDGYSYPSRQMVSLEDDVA
Assay: Inhibition of avi-tagged-biotinylated human PCSK9 interaction with His-tagged human LDLR EGFa domain by LANCE Ulight Streptavidin based TR-FRET assay
Format: protein assay

With NCCCC[C@@H]1NC(=O)CCSCc2cccc(c2)CSC[C@H](C(N)=O)NC(=O)[C@@H]2CCCN2C(=O)[C@H](Cc2ccc(O)cc2)NC(=O)[C@H](Cc2cnc[nH]2)NC(=O)[C@H](CC(=O)O)NC(=O)[C@H](Cc2c[nH]c3ccc(F)cc23)NC(=O)[C@H](Cc2c[nH]c3ccc(F)cc23)NC(=O)CNC1=O as the compound, how does the Ki read?
Its Ki is 2010 nM.

C[C@H](O)[C@H]1NC(=O)[C@H](CCCCN)NC(=O)CCSCc2cccc(c2)CSCCNC(=O)[C@]2(C)CCCN2C(=O)[C@H](Cc2ccc(O)cc2)NC(=O)[C@H](Cc2cnc[nH]2)NC(=O)[C@H](CC(=O)O)NC(=O)[C@H](Cc2c[nH]c3ccc(F)cc23)NC(=O)[C@H](Cc2c[nH]c3ccc(F)cc23)NC1=O was tested. Which Ki did it give?
Its Ki is 26.9 nM.

Which Ki does the source give for NCCCC[C@@H]1NC(=O)CCSCc2cccc(c2)CSC[C@@H](C(N)=O)NC(=O)[C@H]2CCCN2C(=O)[C@H](Cc2ccc(O)cc2)NC(=O)[C@H](Cc2cnc[nH]2)NC(=O)[C@H](CC(=O)O)NC(=O)[C@H](Cc2c[nH]c3ccc(F)cc23)NC(=O)[C@H](Cc2c[nH]c3ccc(F)cc23)NC(=O)CNC1=O here?
Its Ki is > 50000 nM.

How did the Ki turn out when NCCCC[C@@H]1NC(=O)CCSCc2cccc(c2)CSC[C@@H](C(N)=O)NC(=O)[C@@H]2CCCN2C(=O)[C@@H](Cc2ccc(O)cc2)NC(=O)[C@H](Cc2cnc[nH]2)NC(=O)[C@H](CC(=O)O)NC(=O)[C@H](Cc2c[nH]c3ccc(F)cc23)NC(=O)[C@H](Cc2c[nH]c3ccc(F)cc23)NC(=O)CNC1=O was run?
Its Ki is > 48000 nM.

For NCCCC[C@@H]1NC(=O)CCSCc2cccc(c2)CSC[C@@H](C(N)=O)NC(=O)[C@@H]2CCCN2C(=O)[C@H](Cc2ccc(O)cc2)NC(=O)[C@H](Cc2cnc[nH]2)NC(=O)[C@H](CC(=O)O)NC(=O)[C@@H](Cc2c[nH]c3ccccc23)NC(=O)[C@H](Cc2c[nH]c3ccc(F)cc23)NC(=O)CNC1=O, which Ki is on record?
Its Ki is > 48000 nM.

For NCCCC[C@H]1NC(=O)CCSCc2cccc(c2)CSC[C@@H](C(N)=O)NC(=O)[C@@H]2CCCN2C(=O)[C@H](Cc2ccc(O)cc2)NC(=O)[C@H](Cc2cnc[nH]2)NC(=O)[C@H](CC(=O)O)NC(=O)[C@H](Cc2c[nH]c3ccc(F)cc23)NC(=O)[C@H](Cc2c[nH]c3ccc(F)cc23)NC(=O)CNC1=O, which Ki is on record?
The Ki was 16200 nM.

With NCCCC[C@@H]1NC(=O)CCSCc2cccc(c2)CSC[C@@H](C(N)=O)NC(=O)[C@@H]2CCCN2C(=O)[C@H](Cc2ccc(O)cc2)NC(=O)[C@@H](Cc2cnc[nH]2)NC(=O)[C@H](CC(=O)O)NC(=O)[C@H](Cc2c[nH]c3ccc(F)cc23)NC(=O)[C@H](Cc2c[nH]c3ccc(F)cc23)NC(=O)CNC1=O as the compound, how does the Ki read?
The Ki was > 48000 nM.

How did the Ki turn out when NCCCC[C@@H]1NC(=O)CCSCc2cccc(c2)CSC[C@@H](C(N)=O)NC(=O)[C@@H]2CCCN2C(=O)[C@H](Cc2ccc(O)cc2)NC(=O)[C@H](Cc2cnc[nH]2)NC(=O)[C@H](CC(=O)O)NC(=O)[C@H](Cc2c[nH]c3ccc(F)cc23)NC(=O)[C@@H](Cc2c[nH]c3ccccc23)NC(=O)CNC1=O was run?
Its Ki is > 48000 nM.

With NCCCC[C@@H]1NC(=O)CCSCc2cccc(c2)CSC[C@@H](C(N)=O)NC(=O)[C@@H]2CCCN2C(=O)[C@H](Cc2ccc(O)cc2)NC(=O)[C@H](Cc2cnc[nH]2)NC(=O)[C@@H](CC(=O)O)NC(=O)[C@H](Cc2c[nH]c3ccc(F)cc23)NC(=O)[C@H](Cc2c[nH]c3ccc(F)cc23)NC(=O)CNC1=O as the compound, how does the Ki read?
The Ki was > 48000 nM.

Which Ki does the source give for C[C@@H]1NC(=O)CCSCc2cccc(c2)CSCCNC(=O)[C@]2(C)CCCN2C(=O)[C@H](Cc2ccc(O)cc2)NC(=O)[C@H](Cc2cnc[nH]2)NC(=O)[C@H](CC(=O)O)NC(=O)[C@H](Cc2c[nH]c3ccc(F)cc23)NC(=O)[C@H](Cc2c[nH]c3ccc(F)cc23)NC(=O)[C@@H](CCCCN)NC1=O here?
Its Ki is 48.1 nM.

CC(=O)N[C@H]1CSCc2cccc(c2)CSC[C@@H](C(N)=O)NC(=O)[C@@H]2CCCN2C(=O)[C@H](Cc2ccc(O)cc2)NC(=O)[C@H](Cc2c[nH]cn2)NC(=O)[C@H](CC(=O)O)NC(=O)[C@H](Cc2c[nH]c3ccc(F)cc23)NC(=O)[C@H](Cc2c[nH]c3ccccc23)NC(=O)CNC(=O)[C@H](CCCCN)NC1=O (Ac-CKGW[Trp(5-F)]DHYPC-NH2; linker 1-10 via mXylylene) was tested. Which Ki did it give?
Its Ki is 103 nM.

How did the Ki turn out when CC(=O)N[C@H]1CSCc2cccc(c2)CSC[C@@H](C(N)=O)NC(=O)[C@@H]2CCCN2C(=O)[C@H](Cc2ccc(O)cc2)NC(=O)[C@H](Cc2cnc[nH]2)NC(=O)[C@H](CC(=O)O)NC(=O)[C@H](Cc2c[nH]c3ccccc23)NC(=O)[C@H](Cc2c[nH]c3ccc(F)cc23)NC(=O)CNC(=O)[C@H](CCCCN)NC1=O (Ac-CKG[Trp(5-F)]WDHYPC-NH2; linker 1-10 via mXylylene) was run?
Its Ki is 1070 nM.

With CC(=O)N[C@H]1CSCc2cccc(c2)CSC[C@@H](C(N)=O)NC(=O)[C@@H]2CCCN2C(=O)[C@H](Cc2ccc(O)cc2)NC(=O)[C@H](Cc2cnc[nH]2)NC(=O)[C@H](CC(=O)O)NC(=O)[C@H](Cc2c[nH]c3ccc(F)cc23)NC(=O)[C@H](Cc2c[nH]c3ccc(F)cc23)NC(=O)CNC(=O)[C@H](CCCCN)NC1=O (Ac-CKG[Trp(5-F)][Trp(5-F)]DHYPC-NH2; linker 1-10 via mXylylene) as the compound, how does the Ki read?
The Ki was 47.1 nM.

Which Ki does the source give for CC(=O)N[C@@H](Cc1cnc[nH]1)C(=O)N(C)[C@@H](Cc1ccc(F)cc1)C(=O)N[C@H]1CSCc2cccc(c2)CSC[C@@H](C(N)=O)NC(=O)[C@@H]2CCCN2C(=O)[C@H](Cc2ccc(O)cc2)NC(=O)[C@H](Cc2cnc[nH]2)NC(=O)[C@H](CC(=O)O)NC(=O)[C@H](Cc2c[nH]c3ccc(F)cc23)NC(=O)[C@H](Cc2c[nH]c3ccc(F)cc23)NC(=O)CNC(=O)[C@H](CCCCN)NC1=O (Ac-H[NMePhe(4-F)]CKG[Trp(5-F)][Trp(5-F)]DHYPC-NH2; linker 3-12 via mXylylene) here?
The Ki was 956 nM.

CCCCC(NC(C)=O)C(=O)N[C@H]1CSCc2cccc(c2)CSC[C@@H](C(N)=O)NC(=O)[C@H]([C@@H](C)O)NC(=O)[C@H](CCC)NC(=O)[C@H](Cc2ccc(O)cc2)NC(=O)[C@H](CCC(=O)O)NC(=O)[C@H](CCC)NC(=O)[C@H](Cc2c[nH]c3ncccc23)NC(=O)[C@H]([C@@H](C)O)NC(=O)[C@H](Cc2cnc[nH]2)NC(=O)[C@H](Cc2ccc(O)cc2)NC(=O)[C@H](C(C)(C)C)NC1=O (stereo partly drawn) (Ac-[ξNle]C[Tle]YHT[Trp(7-aza)][Nva]EY[Nva]TC-NH2; linker 2-13 via mXylylene) was tested. Which Ki did it give?
Its Ki is 134 nM.

For C[C@@H]1NC(=O)[C@H](CCCCN)NC(=O)CCSCc2cccc(c2)CSC[C@@H](C(N)=O)NC(=O)[C@@H]2CCCN2C(=O)[C@H](Cc2ccc(O)cc2)NC(=O)[C@H](Cc2cnc[nH]2)NC(=O)[C@H](CC(=O)O)NC(=O)[C@H](Cc2c[nH]c3ccc(F)cc23)NC(=O)[C@H](Cc2c[nH]c3ccc(F)cc23)NC1=O ([Mpa]KA[Trp(5-F)][Trp(5-F)]DHYPC-NH2; linker 1-10 via mXylylene), which Ki is on record?
Its Ki is > 48000 nM.

How did the Ki turn out when C[C@@H]1NC(=O)CNC(=O)[C@H](CCCCN)NC(=O)CCSCc2cccc(c2)CSC[C@@H](C(N)=O)NC(=O)[C@@H]2CCCN2C(=O)[C@H](Cc2ccc(O)cc2)NC(=O)[C@H](Cc2cnc[nH]2)NC(=O)[C@H](CC(=O)O)NC(=O)[C@H](Cc2c[nH]c3ccc(F)cc23)NC1=O ([Mpa]KGA[Trp(5-F)]DHYPC-NH2; linker 1-10 via mXylylene) was run?
The Ki was 656 nM.

For NCCCC[C@@H]1NC(=O)CCSCc2cccc(c2)CSC[C@@H](C(N)=O)NC(=O)[C@@H]2CCCN2C(=O)[C@H](Cc2ccc(O)cc2)NC(=O)[C@H](Cc2c[nH]cn2)NC(=O)[C@H](CC(=O)O)NC(=O)[C@H](Cc2c[nH]c3ccc(F)cc23)NC(=O)[C@H](Cc2ccc(-c3ccccc3)cc2)NC(=O)CNC1=O ([Mpa]KG[Bip][Trp(5-F)]DHYPC-NH2; linker 1-10 via mXylylene), which Ki is on record?
Its Ki is 29300 nM.
